Assay results taken from article PMC9096233, “Identification of an Au(I) N-Heterocyclic Carbene Compound as a Bactericidal Agent Against Pseudomonas aeruginosa” (Frontiers in Chemistry, 2022).
Read-outs that look alike come from different tables or passages of the source.

Tests used:
[1] = test system: Burkholderia cepacia J2315; assay: MIC by standard broth dilution; format: cell-based; conditions: Table S1
Experimental: (§1) Pseudomonas aeruginosa strain PAO1 (P. aeruginosa) was grown in M9 minimal medium (1.0 g/L NH4Cl, 0.5 g/L NaCl, 6.0 g/L Na2HPO4, 3.0 g/L KH2PO4) supplemented with 1.0 mM MgSO4, 1.0 mM ZnSO4, 0.2 mM CaCl2, 0.4% (w/v) glucose and 0.2% (w/v) casein hydrolysate. Gram-negative Escherichia coli strain K-12 (E. coli) and Burkholderia cepacia J2315 (B. cepacia) were cultured in Luria-Bertani (LB) medium (5 g/L yeast extract, 10 g/L tryptone, 10 g/L sodium chloride). The Gram-positive Staphylococcus aureus strain Newman (S. aureus) was grown in Tryptic Soy Broth (TSB) medium (17 g/L Tryptone, 3 g/L Phytone, 5 g/L sodium chloride, 2.5 g/L dipotassium phosphate and glucose 2.5 g/L).
(§2) The minimal inhibitory concentration (MIC) values of the gallium compounds were determined using a standard broth dilution method as described previously ([Wiegand et al., 2008]). In brief, the compounds were two-fold serially diluted to concentrations from 400 to 1.56 μM. Approximately 50 μL of the compound solution was added to a 96-well microtiter plate and mixed with 50 μL of bacteria culture in log phase (10^6 CFU/ml). The bacterial culture was further incubated at 37°C for 22–24 h. The OD600 values for each well was recorded on a microplate reader. The MICs value was defined as the lowest compound concentration that inhibited 95% of the bacterial growth.

[2] = test system: Escherichia coli MG16552; assay: MIC by standard broth dilution; format: cell-based; conditions: Table S1
Experimental: as §1, §2

[3] = test system: Pseudomonas aeruginosa strain PAO1; assay: MIC by standard broth dilution; format: cell-based; conditions: read-out: MIC
Experimental: as §1, §2

[4] = test system: Staphylococcus aureus Newman; assay: MIC by standard broth dilution; format: cell-based; conditions: Table S1
Experimental: as §1, §2

[5] = test system: P. aeruginosa; assay: Bacterial growth curves; format: cell-based, Pseudomonas aeruginosa; conditions: growth curves
Experimental: as §1

[6] = test system: pyocyanin; assay: Quantification of secreted pyocyanin; format: cell-based, Pseudomonas aeruginosa; conditions: 15 μM; 24 h
Experimental: To quantify the secreted virulence factors, overnight P. aeruginosa PAO1 was diluted in fresh M9 medium and cultured to a final OD600 value of 0.15. Then Au1 or auranofin were added into culture with indicated concentrations. After 24 h incubation at 37°C, the bacterial supernatants were collected by centrifugation at 4,000 g for 10 min at 4°C and filtered using a 0.22 μm syringe filter (Millipore). The secreted virulence factors in the supernatant were quantified by the methods described below.
The bacterial secreted pyocyanin was quantified as described previously ([Essar et al., 1990]). Approximately 10 ml bacterial supernatant medium was collected by centrifugation. Subsequently, 3 ml chloroform was added into medium to extract the pyocyanin. The pyocyanin was re-extracted into 1 ml of 0.2 M HCl to give a pink to deep red solution after approximately 30 min. The pyocyanin concentration was determined by measurement the absorbance at 520 nm.

[7] = test system: P. aeruginosa; assay: Time-course of bacterial membrane permeation, propidium iodide microplate; format: cell-based, Pseudomonas aeruginosa; conditions: 50 μM; 37°C
Experimental: Overnight P. aeruginosa culture was diluted 1:100 with fresh M9 medium and grown to early-mid exponential phase (OD600 = 0.4–0.6). The culture was then diluted 1:10 into PBS and treated with the 50 μM concentration of Au1 or auranofin for 30 min. Then the bacteria were incubated with propidium iodide (PI), a dye that is excluded from cells with impermeable membrane. The CytoFLEX flow cytometry (Beckman Coulter) was used to measure the bacterial fluorescent intensities and the data was analyzed using CytExpert 2.4 software. For the time-course detection of the bacterial permeability induced by Au1 or auranofin, P. aeruginosa in early-mid exponential phase (OD600 = 0.2) was incubated with PI dye on a 96-well plate. Au1 or auranofin was added to a final concentration of 50 μM. The fluorescence signal (561 nm excitation, 590 nm emission) and OD600 value were recorded on Cytation5 microplate reader. Each experiment was performed in triplicates.

NHC^Me-Au-Cl [Au1]
MIC [1]: 25 µM | MIC [2]: <1.56 µM | MIC ([3]; P. aeruginosa PAO1, lowest concentration inhibiting 95% of growth, 22–24 h, Table 1): 25 µM | MIC ([3]; Pseudomonas aeruginosa PAO1, Table S1): 25 µM | MIC [4]: <1.56 µM | concentration at which P. aeruginosa growth was completely inhibited [5]: 20 µM | pyocyanin secretion [6]: almost completely inhibited | time to initiation of bacterial membrane rupture [7]: 1.5 h
